Reference: patent US7348359B2, “Retinoid X receptor modulators” (Eli Lilly and Company, priority 2001, dated 2008)

Key:
[1] = system: db/db mouse; experiment: db/db mouse plasma glucose and triglycerides, oral gavage; format: in vivo; details: for db/db mouse Glu. (D 7): plasma glucose as a % correction relative to lean values on day 7 of treatment with 30 mg/kg/day; for db/db mouse Trigs. (D 3): plasma triglycerides as a % of control values on day 3 of treatment with 30 mg/kg/day
[2] = system: transgenic mice carrying the human apo A-I gene; experiment: Mice transgenic for the human apolipoprotein A-I gene: HDL cholesterol and triglycerides; format: in vivo; details: transgenic mouse model; Table 1
Source text: Mice transgenic for the human apolipoprotein A-I gene (obtained from Jackson Laboratory) were used to evaluate PPARα mediated effects on high density lipoprotein (HDL) cholesterol. The mice were handled as described above for db/db mice, except that they were fed Purina 5001.
When administered to transgenic mice carrying the human apo A-I gene, compounds of the invention are expected to increase HDL cholesterol. […] This effect is consistent with activation of PPARα and, in fact, in vivo these compounds synergize with the weak PPARα agonist fenofibrate.

[3] = system: rodent models of NIDDM; experiment: Rodent models of NIDDM, effects of full RXR homodimer agonists
Procedure: All animal experiments were conducted in a United States Department of Agriculture registered facility in accordance with NIH guidelines for the care and use of laboratory animals. Mice (obtained from Jackson Laboratory), ZDF rats (obtained from Genetic Models Inc.) and fa/fa rats (obtained from either Charles River, or Harlan) were maintained on 12-hour light/dark cycle. Mice (age 28-42 days) were caged in groups of 5-6. Rats (age 7 weeks) were housed individually. […] Compounds were administered at the specified doses by oral gavage on the morning of each day of any experiment. Blood samples were obtained 3 hours after dosing from fed animals under anesthesia and collected into heparinized capillary tubes from the tail vein.

[4] = biological target: T1, RXR α (Homo sapiens, UniProt P19793); experiment: RXR α binding, Ki from IC50 by Cheng-Prussof equation using tritiated LGD1069; details: determined from IC50 values by the Cheng-Prussof equation using tritiated LGD1069; read-out: Bind RXR α Ki
T1 sequence (P19793 1-462): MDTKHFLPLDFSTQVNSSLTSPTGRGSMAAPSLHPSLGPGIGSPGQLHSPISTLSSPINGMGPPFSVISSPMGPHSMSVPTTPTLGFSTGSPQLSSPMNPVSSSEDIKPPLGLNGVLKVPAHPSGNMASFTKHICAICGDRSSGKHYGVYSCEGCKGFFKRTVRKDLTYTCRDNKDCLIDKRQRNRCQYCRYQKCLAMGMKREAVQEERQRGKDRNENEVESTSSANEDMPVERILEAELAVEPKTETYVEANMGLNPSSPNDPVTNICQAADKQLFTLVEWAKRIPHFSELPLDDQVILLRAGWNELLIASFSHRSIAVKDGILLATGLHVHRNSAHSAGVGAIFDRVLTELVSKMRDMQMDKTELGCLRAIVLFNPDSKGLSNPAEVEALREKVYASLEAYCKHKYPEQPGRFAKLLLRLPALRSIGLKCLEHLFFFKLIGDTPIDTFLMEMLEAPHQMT

[5] = biological target: T2, RXR:PPARγ (Homo sapiens, UniProt P19793); experiment: RXR:PPARγ synergy with BRL49653 in CV-1 cells; format: cell-based; details: maximal response in presence of 100 nM BRL49653 (RXR:PPARγ) relative to maximal response of BRL49653 alone
T2 construct: host or cells: CV-1
T2 sequence (P19793 1-462): T1 sequence (P19793 1-462)
T2 sequence (P37231 1-505 partner): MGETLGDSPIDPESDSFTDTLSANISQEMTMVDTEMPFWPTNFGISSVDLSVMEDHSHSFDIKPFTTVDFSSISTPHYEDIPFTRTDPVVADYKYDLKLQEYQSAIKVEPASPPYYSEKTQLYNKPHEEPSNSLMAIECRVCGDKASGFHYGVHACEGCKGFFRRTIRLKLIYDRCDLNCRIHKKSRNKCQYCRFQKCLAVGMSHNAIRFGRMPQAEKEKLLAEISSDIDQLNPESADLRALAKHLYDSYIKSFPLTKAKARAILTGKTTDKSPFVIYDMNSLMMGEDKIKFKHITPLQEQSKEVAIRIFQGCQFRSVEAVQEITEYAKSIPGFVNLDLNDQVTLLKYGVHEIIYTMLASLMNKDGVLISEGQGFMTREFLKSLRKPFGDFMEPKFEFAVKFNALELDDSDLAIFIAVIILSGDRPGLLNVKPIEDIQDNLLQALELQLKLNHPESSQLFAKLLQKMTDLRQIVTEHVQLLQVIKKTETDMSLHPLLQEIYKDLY

[6] = biological target: T3, RXR:RXR (Homo sapiens, UniProt P19793); experiment: RXR:RXR agonist/antagonist efficacy in CV-1 cells; format: cell-based; details: for RXR:RXR CV-1 (%) Antag: maximal repression (100%) in the presence of 32 nM LGD1069; for RXR:RXR CV-1 (%) Ag: maximal response relative to maximal response of ATRA
T3 construct: host or cells: CV-1
T3 sequence (P19793 1-462): T1 sequence (P19793 1-462)

[7] = biological target: T4, RXR:RAR (Homo sapiens, UniProt P19793); experiment: RXR:RAR agonist efficacy in CV-1 cells; format: cell-based; details: for RXR:RAR CV-1 (%) Ag.: maximal response relative to maximal response of ATRA; for activation of RXR:RAR heterodimers: statement on Table 1
T4 construct: host or cells: CV-1
T4 sequence (P19793 1-462): T1 sequence (P19793 1-462)
T4 sequence (P10276 1-462 partner): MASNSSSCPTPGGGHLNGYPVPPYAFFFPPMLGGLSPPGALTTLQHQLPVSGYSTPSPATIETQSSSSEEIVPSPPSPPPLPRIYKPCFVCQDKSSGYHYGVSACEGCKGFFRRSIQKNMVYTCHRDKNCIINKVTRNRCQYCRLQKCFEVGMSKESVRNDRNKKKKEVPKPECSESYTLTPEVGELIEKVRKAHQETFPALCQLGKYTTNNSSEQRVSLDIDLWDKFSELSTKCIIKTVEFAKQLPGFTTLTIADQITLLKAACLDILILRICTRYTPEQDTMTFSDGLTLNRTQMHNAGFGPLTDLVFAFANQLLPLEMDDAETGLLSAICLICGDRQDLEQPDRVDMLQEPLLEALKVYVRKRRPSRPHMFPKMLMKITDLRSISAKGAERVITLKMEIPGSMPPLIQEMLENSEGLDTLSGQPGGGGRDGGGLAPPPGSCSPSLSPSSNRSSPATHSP

SMILES	db/db mouse Glu. (D 7) [1]	db/db mouse Trigs. (D 3) [1]	triglycerides [2]	Ki [4]	PPARγ CV-1 (%) Synergy [5]	RXR:RXR CV-1 (%) Antag [6]	RXR:RXR CV-1 (%) Ag [6]	RXR:RAR CV-1 (%) Ag. [7]	activation of RXR:RAR heterodimers [7]	melting point	also measured
Cc1cc2c(cc1C1(c3ccc(C(=O)O)cn3)CC1)C(C)(C)CCC2(C)C [LG100268]	73%	195%	raises triglycerides								blood glucose levels [3]: lower blood glucose levels; thyroid hormone axis [3]: suppress the thyroid hormone axis; triglycerides [3]: raise triglycerides
CCCCOc1c(-c2c(F)ccc3sc(/C(C)=C/C(=O)O)cc23)cc(C(C)C)cc1C(C)C [Ex. 18, (E)-3-[4-(2-n-Butoxy-3,5-di-iso-propylphenyl)-5-fluorobenzo[b]thien-2-yl]-but-2-enoic acid]	38%	105%	do not raise triglycerides	54 nM	40%	86%	1%	4%	do not activate RXR:RAR heterodimers		
CCOc1c(-c2cccc3cc(/C(C)=C/C(=O)O)oc23)cc(C(C)C)cc1C(C)C [Ex. 5, 3-[7-(2-Ethoxy-3,5-diisopropylphenyl)-benzo[b]furan-2-yl]-but-2-enoic acid]	17%	104%	do not raise triglycerides	22 nM	140%	10%	33%	3%	do not activate RXR:RAR heterodimers		
CCCOc1c(-c2cccc3sc(/C(C)=C/C(=O)O)cc23)cc(C(C)C)cc1C(C)C [Ex. 15]	20%	98%	do not raise triglycerides	14 nM	109%	81%	4%	6%	do not activate RXR:RAR heterodimers		
CN(C)C(=N)N=C(N)N [metformin, reference compound]											plasma glucose ([1]; 7 week old db/db mice, 300 mg/kg by daily oral gavage, maximum effect after first week, efficacy decreases over 3 subsequent weeks): lowers plasma glucose
CCCOc1c(-c2c[nH]c3ccc(/C(C)=C/C(=O)O)cc23)cc(C(C)(C)C)cc1C(C)(C)C [Example 63, 3-[3-(3,5-Di-tert-butyl-2-propoxy-phenyl)-1H-indol-5-yl]-but-2-enoic acid]										105 to 115 °C	
C/C(=C\C(=O)O)c1cc2c(-c3cc(C(C)(C)C)cc(C(C)(C)C)c3OCC(F)F)cccc2s1 [Ex. 14, 3-{4-[2-(2,2-Difluoroethoxy)-3,5-di-tert-butylphenyl]-benzo[b]thien-2-yl}-but-2-enoic acid]	35%	139%	do not raise triglycerides	12 nM	67%	79%	1%	2%	do not activate RXR:RAR heterodimers		
C/C(=C\C(=O)O)c1ccc2[nH]cc(-c3cc(C(C)(C)C)cc(C(C)(C)C)c3OCC(F)(F)F)c2c1 [Example 65, 3-{3-[3,5-Di-tert-butyl-2-(2,2,2-trifluoro-ethoxy)-phenyl]-1H-indol-5-yl}-but-2-enoic acid]										146 to 153 °C	
CCCCOc1c(-c2nccc3ccc(/C(C)=C/C(=O)O)cc23)cc(C(C)C)cc1C(C)C [Example 53, 3-[1-(2-Butoxy-3,5-diisopropyl-phenyl)-isoquinolin-7-yl]-but-2(E)-enoic acid]										149.8 °C	
CCCCOc1c(-c2ccnc3ccc(/C(C)=C/C(=O)O)cc23)cc(C(C)C)cc1C(C)C [Example 54, 3-[4-(2-Butoxy-3,5-diisopropyl-phenyl)quinolin-6-yl]-but-2(E)-enoic acid]										195.3 °C	
C/C(=C\C(=O)O)c1ccc2[nH]cc(-c3cc(C(C)(C)C)cc(C(C)(C)C)c3OCC(F)F)c2c1 [Example 64, 3-{3-[3,5-Di-tert-butyl-2-(2,2-difluro-ethoxy)-phenyl]-1H-indol-5-yl}-but-2-enoic acid]										135 to 145 °C	
